# Laboratory results: PMC6768916, “Population pharmacokinetics of fedratinib in patients with myelofibrosis, polycythemia vera, and essential thrombocythemia” (Cancer Chemotherapy and Pharmacology, 2019)
# “Also recorded” adds a separate entry of the source. Where two headings read alike, the source gives them in different places.
# Key:
# [1] = system: activated mutant JAK2 V617F; set-up: method as in PMID 18394554; details: cited from earlier work
# [2] = system: JAK2 V617F-driven aberrant human PV progenitor erythroid differentiation; set-up: method as in PMID 18394555; details: cited from earlier work
# [3] = cited from earlier work
# [4] = population pharmacokinetic model in patients with MF, PV or ET; format: in vivo, human
# Method: The population PK analysis utilized data from one phase 1 study (TED12037 [NCT00631462]), four phase 2 studies (ARD11936 [NCT01420770], ARD12042 [NCT01420783], ARD12181 [NCT01523171], ARD12888 [NCT01692366]) and one phase 3 study (EFC12153 [NCT01437787]). Study design, dosing regimen, and PK sampling information are presented in Supplementary Table 1. These studies were conducted in accordance with the Declaration of Helsinki and the International Council for Harmonisation Guideline for Good Clinical Practice (ICH E6). Written informed consent was obtained from all subjects.
# Concentrations of fedratinib in plasma were determined using a validated high-performance liquid chromatography with tandem mass spectrometric detection, with good accuracy (− 6.75–8.8%) and precision (4.84–13.11%). The lower limit of quantification was 1 ng/mL, and the calibration range was 1–1000 ng/mL.
# Population PK analyses were conducted using a nonlinear mixed-effect modeling approach, as implemented in the NONMEM software version 7.3.0 (ICON Development Solutions, Ellicott City, MD). Plotting of NONMEM outputs was conducted using the R software (version 3.4.1) and RStudio (version 1.1.456, Boston, MA).
# In the development of the structural model, one- to three-compartment models with first-order elimination and different absorption models including first-order absorption with and without lag time, zero-order absorption and transit compartment model were tested to fit the plasma concentration-time data. First-order conditional estimation (FOCE) with interaction method was used for parameter estimation, with natural logarithm-transformed plasma fedratinib concentration data. The inter-subject variability was modeled assuming a log-normal distribution. Residual variability was modeled using an additive model. The model selection was based on the objective function value (OFV) using the log-likelihood ratio test, the goodness of fit criteria and visual predictive check (VPC). Covariate model building was carried out using a stepwise procedure, with significance levels set to 0.01 and 0.001 for the forward inclusion and backward elimination steps, respectively. Missing baseline covariates were imputed as the median value in the study population.
# Stability of the final PK parameter estimates and the 95% confidence interval (CI) for the parameters were evaluated using the nonparametric bootstrap approach. With this approach, 500 datasets of size equal to the original dataset were generated by random resampling with replacement from the original dataset. The final model was fit to each of the 500 bootstrap datasets and all the model parameters were estimated for each dataset. The median and nonparametric 95% CI (2.5–97.5 percentiles) of the 500 estimates were calculated for each parameter. The ability of the final population PK model to describe the observed concentration data was evaluated by simulating 200 datasets having the same doses, dosing schedules and sampling times as the original dataset and by performing prediction-corrected VPC [18]. The 5th, 50th and 95th prediction percentiles of the fedratinib concentrations at each binned time point were computed for each simulated trial. Thereafter, the nonparametric 90% CI of the 5th, 50th and 95th prediction percentiles at each binned time point were calculated for the 200 simulated trials.
# [5] = human, in vivo; cited from earlier work
# wild-type JAK2 = system: wild-type JAK2; set-up: method as in PMID 18394554; details: cited from earlier work
# FLT3 = system: FLT3; set-up: method as in PMID 18394554; details: cited from earlier work
# [6] = final model, inter-individual variability
smiles,measurement,setting,value
"Cc1cnc(Nc2ccc(OCCN3CCCC3)cc2)nc1Nc1cccc(S(=O)(=O)NC(C)(C)C)c1 [fedratinib, Fedratinib]",IC50,[1],3 nM
same,inhibition of JAK2 V617F-driven aberrant human PV progenitor erythroid differentiation,[2],significantly inhibits
same,dose proportionality of exposure,[3]; 300–500 mg at steady state,approximately dose-proportional
same,mean accumulation ratio,"[3]; 300–500 mg once daily, steady state",2.95–3.88
same,time to peak plasma concentration,"[3]; human, in vivo, po",0.5 to 4 h
same,dose proportionality of exposure,"[3]; human, in vivo",greater than dose-proportional increase
same,time to steady state of plasma levels,[3]; once daily dosing,≤ 15 days
same,increase in exposure (steady-state AUC) with moderate renal impairment vs normal renal function,[4]; 30 ≤ CLcr < 60 mL/min vs CLcr ≥ 90 mL/min,37%
same,increase in exposure (steady-state AUC) with mild renal impairment vs normal renal function,[4]; 60 ≤ CLcr < 90 mL/min vs CLcr ≥ 90 mL/min,10%
same,apparent clearance of a typical PV patient,[4]; CLcr = 78.5 mL/min,20.0 L/h
same,increase in typical AUC with severe renal impairment vs normal renal function,"[4]; MF patients, severe renal impairment, N = 3",59%
same,"typical value of CL/F, base model",[4]; base model,13.6 L/h
same,"typical value of V2/F, base model",[4]; base model,340 L
same,magnitude of changes in V2/F by body weight,[4]; body weight 39.5 to 135 kg,less than 30%
same,magnitude of changes in V2/F by dose,[4]; covariate analysis,less than 30%
same,linearity of PK with dose,[4]; doses of 200 mg and above,"linear, time-invariant PK; also recorded: increased linearly"
same,CL/F higher in PV patients compared to MF or ET patients,[4]; final model,54%
same,CL/F of a typical MF patient,[4]; final model,13.0 L/h
same,"TVCL/F, parameter estimate",[4]; final model,13.0 L/h
same,"TVKa, parameter estimate",[4]; final model,1.57 h⁻¹
same,"TVQ/F, parameter estimate",[4]; final model,45.2 L/h
same,"TVV2/F, parameter estimate",[4]; final model,311 L
same,"TVV3/F, parameter estimate",[4]; final model,1460 L
same,V2/F higher in PV patients compared to MF or ET patients,[4]; final model,87%
same,fold higher CL/F in PV patients compared to MF or ET patients,[4]; final model,1.54 fold
same,fold higher V2/F in PV patients compared to MF or ET patients,[4]; final model,1.87 fold
same,"TVCL/F, bootstrap median (95% CI)","[4]; final model, 484 of 500 bootstrap replicates",13.1 (12.4 to 13.9) L/h
same,"TVALAG1, parameter estimate","[4]; final model, absorption lag time",0.265 h
same,"COVCL/F-V2/F, bootstrap median (95% CI)","[4]; final model, bootstrap",0.193 (0.145 to 0.249)
same,"PV on V2/F, bootstrap median (95% CI)","[4]; final model, bootstrap",1.85 (1.40 to 2.42)
same,"TVALAG1, bootstrap median (95% CI)","[4]; final model, bootstrap",0.265 (0.264 to 0.321) h
same,"TVKa, bootstrap median (95% CI)","[4]; final model, bootstrap",1.64 (1.34 to 2.05) h^−1
same,"TVQ/F, bootstrap median (95% CI)","[4]; final model, bootstrap",45.2 (38.5 to 52.9) L/h
same,"TVV2/F, bootstrap median (95% CI)","[4]; final model, bootstrap",313 (282 to 343) L
same,"TVV3/F, bootstrap median (95% CI)","[4]; final model, bootstrap",1470 (1190 to 1790) L
same,"Weight on V2/F, bootstrap median (95% CI)","[4]; final model, bootstrap",0.733 (0.383 to 1.10)
same,"σ^2 (Log additive), bootstrap median (95% CI)","[4]; final model, bootstrap",0.194 (0.159 to 0.264)
same,"ω^2, Ka, bootstrap median (95% CI)","[4]; final model, bootstrap",1.09 (0.728 to 1.54)
same,"ω^2, V2/F, bootstrap median (95% CI)","[4]; final model, bootstrap",0.371 (0.247 to 0.510)
same,"COVCL/F-V2/F, parameter estimate","[4]; final model, covariance",0.197
same,"PV on V2/F, parameter estimate","[4]; final model, covariate factor if PV",1.87
same,"Weight on V2/F, parameter estimate","[4]; final model, exponent of (Weight/70.1)",0.727
same,"ω^2, Ka, parameter estimate",[4]; [6],1.07
same,"ω^2, V2/F, parameter estimate",[4]; [6],0.383
same,"σ^2 (Log additive), parameter estimate","[4]; final model, residual variability",0.201
same,"effect of age, body weight, sex, race and liver function on exposure/PK",[4]; population PK covariate analysis,No clinically meaningful effect
same,CL/F of healthy subjects,[5],20.7 to 46.0 L/h
same,dose proportionality of exposure,[5],greater than dose-proportional increase
same,mean terminal half-life,[5],62 to 78 h
same,"selectivity for JAK2 over JAK1, JAK3 and TYK2",wild-type JAK2,"selective for JAK2 over JAK1, JAK3 and TYK2"
same,IC50,wild-type JAK2; wild-type JAK2,3 nM
same,IC50,FLT3,15 nM
